Source: patent US12528761B2, “Thyromimetics” (Autobahn Therapeutics, Inc., priority 2020, dated 2026)

Target: T1, recombinant human FAAH (rhFAAH) (Homo sapiens, UniProt O00519)
T1 construct: purchased Cayman Chemical (Ann Arbor, MI, USA)
T1 sequence (O00519 1-579): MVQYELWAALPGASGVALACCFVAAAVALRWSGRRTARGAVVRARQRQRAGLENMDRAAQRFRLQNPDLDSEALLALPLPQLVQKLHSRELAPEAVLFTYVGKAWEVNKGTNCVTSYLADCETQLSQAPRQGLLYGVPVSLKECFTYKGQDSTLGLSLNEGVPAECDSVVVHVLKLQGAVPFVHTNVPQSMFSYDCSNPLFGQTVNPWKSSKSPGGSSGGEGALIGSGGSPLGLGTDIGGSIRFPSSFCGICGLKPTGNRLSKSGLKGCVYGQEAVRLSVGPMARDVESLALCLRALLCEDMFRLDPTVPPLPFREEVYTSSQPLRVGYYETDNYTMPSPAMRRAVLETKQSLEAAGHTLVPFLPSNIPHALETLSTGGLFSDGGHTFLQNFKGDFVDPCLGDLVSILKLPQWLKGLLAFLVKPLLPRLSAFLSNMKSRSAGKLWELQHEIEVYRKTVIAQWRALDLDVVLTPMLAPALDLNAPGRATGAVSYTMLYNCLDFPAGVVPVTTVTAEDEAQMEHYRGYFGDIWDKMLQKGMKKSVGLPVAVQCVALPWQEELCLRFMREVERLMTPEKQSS
Assay: FAAH substrate evaluation (formation of acid metabolite, LC-MS/MS)
Type: biochemical
Parameters: key: A: ke is equal to or less than 1.0; B: ke is greater than 1.0 and less than or equal to 2.5; C: ke is greater than 2.5; NC: no conversion
Conditions: 0.5 ng/μL rhFAAH, 1 μM test compound, pH 8.0, room temperature, 0-60 minutes
Experimental: Purified recombinant human FAAH (rhFAAH) was purchased from Cayman Chemical (Ann Arbor, MI, USA). The total volume for each incubation was 400 μL containing a final 0.5 ng/μL rhFAAH, 1 μM test compound, 1.25% ethanol or 1 μM PF-3845 (FAAH inhibitor), and 0.1% bovine serum albumin in Tris-EDTA buffer at pH 8.0). The positive control was LL-341001. The incubation was conducted at the room temperature. At 0, 5, 15, 30 and 60 minutes, an aliquot of 30 μL reaction mixtures was removed and mixed with 300 μL acetonitrile containing 5 ng/mL terfenadine and 10 ng/mL tolbutamide as internal standards to quench the reaction. The resulting mixture was centrifuged at 4000 rpm, 4° C. for 15 minutes, and 100 μL supernatant was ready for LC-MS/MS analysis to measure the formation of acid metabolite.
Acquity Ultra Performance LC system from Waters was used for sample analysis. The chromatography was performed on a reverse phase Kinetex 2.6 μm C18 column, 2.1×30 mm, 100 Å. The mobile phase A comprised of 0.1% formic acid in water and mobile phase B comprised of 0.1% formic acid in acetonitrile with a 2-min run time at the flow rate of 0.8 mL/min for the acid metabolite from positive control or a 1.5 min run time at the flow rate of 0.9 mL/min for the acid metabolite of test compounds. The mass spectrometer (API-5500 and API Q Trap 4000 Applied Biosystems/MDS SCIEX Instruments, Framingham, MA, USA) was operated under ESI positive or negative ion MRM mode.
The formation of acid metabolite was monitored and quantified using one calibration point of 1 μM. The observed rate constant (ke) for the acid metabolite formation was calculated by plotting the metabolite concentration versus time of incubation with the slope being ke and is shown in Table 4.

SMILES	ke, observed rate constant for the acid metabolite formation
CNC(=O)CSc1cc(C)c(Cc2ccc(O)c(C(C)C)c2F)c(Cl)c1 [Compound 233, 2-((3-chloro-4-(2-fluoro-4-hydroxy-3-isopropylbenzyl)-5-methylphenyl)thio)-N-methylacetamide]	C (ke is greater than 2.5)
CNC(=O)CSc1cc(Cl)c(Cc2ccc(O)c(C(C)C)c2)c(C)c1F [Compound 220, 2-((5-chloro-2-fluoro-4-(4-hydroxy-3-isopropylbenzyl)-3-methylphenyl)thio)-N-methylacetamide]	NC
CC(C)c1cc(Cc2c(Cl)cc(SCC(=O)N3CCC3)cc2Cl)ccc1O [Compound 183, 1-(azetidin-1-yl)-2-((3,5-dichloro-4-(4-hydroxy-3-isopropylbenzyl)phenyl)thio)ethan-1-one]	A (ke is equal to or less than 1.0)
CNC(=O)CNc1cc(Cl)c(Cc2ccc(O)c(C(C)C)c2F)c(Cl)c1F [Compound 79, 2-((3,5-dichloro-2-fluoro-4-(2-fluoro-4-hydroxy-3-isopropylbenzyl)phenyl)amino)-N-methylacetamide]	A (ke is equal to or less than 1.0)
CNC(=O)CSCc1cc(Cl)c(Cc2ccc(O)c(C(C)C)c2)c(C)c1F [Compound 219, 2-((5-chloro-2-fluoro-4-(4-hydroxy-3-isopropylbenzyl)-3-methylbenzyl)thio)-N-methylacetamide]	A (ke is equal to or less than 1.0)
CCNC(=O)CSc1cc(Cl)c(Cc2ccc(O)c(C(C)C)c2)c(Cl)c1F [Compound 189, 2-((3,5-dichloro-2-fluoro-4-(4-hydroxy-3-isopropylbenzyl)phenyl)thio)-N-ethylacetamide]	A (ke is equal to or less than 1.0)
Cc1cc(CSCC(=O)N(C)C)cc(Cl)c1Cc1ccc(O)c(C(C)C)c1 [Compound 231, 2-((3-chloro-4-(4-hydroxy-3-isopropylbenzyl)-5-methylbenzyl)thio)-N,N-dimethylacetamide]	A (ke is equal to or less than 1.0)
CNC(=O)CCc1cc(C)c(Cc2ccc(O)c(C(C)C)c2F)c(Cl)c1 [Compound 236, 3-(3-chloro-4-(2-fluoro-4-hydroxy-3-isopropylbenzyl)-5-methylphenyl)-N-methylpropanamide]	B (ke is greater than 1.0 and less than or equal to 2.5)
Cc1cc(CSCC(N)=O)cc(Cl)c1Cc1ccc(O)c(C(C)C)c1 [Compound 232, 2-((3-chloro-4-(4-hydroxy-3-isopropylbenzyl)-5-methylbenzyl)thio)acetamide]	C (ke is greater than 2.5)
CNC(=O)CSc1cc(Cl)c(Cc2ccc(O)c(C(C)C)c2)c(Cl)c1 [Compound 195, 2-((3,5-dichloro-4-(4-hydroxy-3-isopropylbenzyl)phenyl)thio)-N-methylacetamide]	B (ke is greater than 1.0 and less than or equal to 2.5)
CNC(=O)/C=C/c1cc(C)c(Cc2ccc(O)c(C(C)C)c2F)c(Cl)c1 [Compound 239, (E)-3-(3-chloro-4-(2-fluoro-4-hydroxy-3-isopropylbenzyl)-5-methylphenyl)-N-methylacrylamide]	NC
CNC(=O)CNc1cc(Cl)c(Cc2ccc(O)c(C(C)C)c2)c(C)c1F [Compound 216, 2-((5-chloro-2-fluoro-4-(4-hydroxy-3-isopropylbenzyl)-3-methylphenyl)amino)-N-methylacetamide]	A (ke is equal to or less than 1.0)
CNC(=O)CNCc1cc(Cl)c(Cc2ccc(O)c(C(C)C)c2)c(Cl)c1 [Compound 111, 2-((3,5-dichloro-4-(4-hydroxy-3-isopropylbenzyl)benzyl)amino)-N-methylacetamide]	A (ke is equal to or less than 1.0)
